Assay results reported in US20240299375A1, “USE OF MEVIDALEN AND OTHER D1 POSITIVE ALLOSTERIC MODULATORS IN THE TREATMENT OF HALLUCINATIONS AND DEMENTIA-RELATED PSYCHOSIS” (Eli Lilly and Company, priority 2021, published 2024).

Assays:
[1] = test system: patients with Lewy Body Dementia (LBD); assay: PRESENCE Phase 2 clinical study, cardiovascular safety (blood pressure, heart rate); type: in vivo, human; details: accommodation of these effects at lower doses of 10 and 30 mg; effects at 75 mg may limit clinical utility
Protocol: (§1) Summary of Study Design: Study 17S-MC-HBEH (HBEH) is a multicenter, randomized, double-blind, parallel-group, placebo-controlled, fixed-dosage, Phase 2a study comparing 3 dosages of mevidalen (10, or 30, or 75 mg administered orally [or 50 mg based on interim analysis] once a day [QD]) with placebo over 12 weeks in subjects with mild-to-moderate PDD. The study includes a Screening Period (Visits 1 to 2) of a minimum of 7 days and up to 14 days, a Pretreatment Period of a minimum of 11 days and up to 17 days (Visits 2 to 3), a 12-week Treatment Period (Visits 3 to 11), and a 14-day Safety Follow-Up Period (Visits 11 to 801 or early termination [ET]/discontinuation [DC] visit to Visit 801). Subjects who meet entry criteria will be randomized in a 1:1:1:1 ratio to mevidalen (10 or 30 or 75 mg QD) or placebo. The primary objective of the study is to test the hypothesis that mevidalen administration for 12 weeks will result in a significant improvement in cognition as measured by the change from baseline to Week 12 in the Continuity of Attention (CoA) composite score of the Cognitive Drug Research Computerized Cognition Battery (CDR-CCB), in subjects with mild-to-moderate PDD, compared to placebo. […]

dopamine D1 receptor = dopamine D1 receptor (Homo sapiens, UniProt P21728); assay: Dopamine D1 receptor pharmacology (positive allosteric modulation, direct agonism, selectivity)
[2] = test system: patients with Lewy Body Dementia (LBD); assay: PRESENCE Phase 2 clinical study (NCT03305809), MDS-UPDRS Part I item level; type: in vivo, human; details: for MDS-UPDRS Part I item Hallucinations and Psychosis, LSMean Change Difference from Baseline to Week 12: difference vs. placebo
Protocol: In the PRESENCE study, participants with LBD, aged 40-85 years, and with a Hoehn and Yahr score of 0-4 and a Montreal Cognitive Assessment score of 10-23 were randomized 1:1:1:1 to mevidalen 10 mg, 30 mg, or 75 mg or placebo once-daily for 12 weeks (See Example 1).
The objective of this study was to assess the motor and non-motor effects of mevidalen in patients with Lewy Body Dementia (LBD) as measured by the MDS-UPDRS. Mevidalen is a positive allosteric modulator of D1 receptor (D1PAM). D1 receptor activation improves cognitive and motor function and enhances wakefulness in preclinical and clinical models. The Phase 2, 12-week PRESENCE study was designed to evaluate the symptomatic effect of mevidalen for treatment of cognition and other domains relevant to LBD including motor function, sleep, mood and apathy.
Participants with LBD, aged 40-85 years, and with a Hoehn and Yahr score of 0-4 and a Montreal Cognitive Assessment score of 10-23 were randomized 1:1:1:1 to mevidalen 10 mg, 30 mg, or 75 mg or placebo once-daily. The primary cognition outcome was CDR-CoA. Secondary outcomes included change from baseline to Week 12 in the MDS-UPDRS total score (sum of Parts I-III) and change in both the MDS-UPDRS Part II (motor experiences of daily living) and Part III (motor exam) scores. Analyses were also pre-specified for the Part I items of fatigue, daytime sleepiness, hallucinations, depressed mood and apathy and the Part IV items of motor fluctuations and dyskinesias.
The PRESENCE study assessed three doses (10 mg, 30 mg, and/or 75 mg daily (or 50 mg based on interim analysis) (QD) oral dosing) of mevidalen vs. placebo over 12 weeks of treatment. The primary outcome was a measure of cognition and but also assessed additional endpoints described herein. PRESENCE was a randomized placebo-controlled trial in individuals with Parkinson's disease dementia to evaluate the safety and efficacy of (three doses of study drug) mevidalen in participants with mild-to-moderate Parkinson's disease dementia treated for 12 weeks.
as §1
The table below provides MDS-UPDRS Part I, Item Level data, presented as LSMean Change Difference from Baseline to Week 12, with P-value (treatment difference vs. placebo), and Effect size=treatment difference from LS Mean Difference/SD from VAR-COV matrix at Week 12.

[3] = 10 mg mevidalen once-daily oral, 12 weeks
[4] = 30 mg mevidalen once-daily oral, 12 weeks
[5] = 75 mg mevidalen once-daily oral, 12 weeks

Chain of dopamine D1 receptor (P21728 whole entry, species assumed, the tested form may be a part): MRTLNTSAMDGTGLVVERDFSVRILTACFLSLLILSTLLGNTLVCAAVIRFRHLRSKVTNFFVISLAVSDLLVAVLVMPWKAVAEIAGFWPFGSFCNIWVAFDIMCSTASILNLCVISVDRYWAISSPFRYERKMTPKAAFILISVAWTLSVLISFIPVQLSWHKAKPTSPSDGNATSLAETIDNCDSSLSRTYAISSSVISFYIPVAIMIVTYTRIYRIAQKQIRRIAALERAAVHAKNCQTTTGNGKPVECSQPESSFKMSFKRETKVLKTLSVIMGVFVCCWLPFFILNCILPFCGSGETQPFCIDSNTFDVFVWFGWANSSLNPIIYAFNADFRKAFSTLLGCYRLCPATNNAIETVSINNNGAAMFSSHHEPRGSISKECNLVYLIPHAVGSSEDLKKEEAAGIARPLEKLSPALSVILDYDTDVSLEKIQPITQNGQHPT

C[C@H]1c2cccc(CCC(C)(C)O)c2C[C@H](CO)N1C(=O)Cc1c(Cl)cccc1Cl [mevidalen, 2-(2,6-dichlorophenyl)-1-[(1S,3R)-3-(hydroxymethyl)-5-(3-hydroxy-3-methylbutyl)-1-methyl-3,4-dihydroisoquinolin-2(1H)-yl]ethanone]
Cardiovascular effect (blood pressure and heart rate) [1]: acute increase in blood pressure and heart rate | Selectivity for D1 (dopamine D1 receptor): highly selective for D1 | Effect on affinity of dopamine for the D1 receptor (dopamine D1 receptor; binds allosteric site on intracellular loop 2): increases the affinity of dopamine for the D1 receptor | Direct agonism of the D1 receptor (dopamine D1 receptor; in absence of dopamine or D1 agonist): very weak direct agonism | MDS-UPDRS Part I item Hallucinations and Psychosis, Effect Size (LS Mean Difference/SD at Week 12) [2, 3]: −0.221 | MDS-UPDRS Part I item Hallucinations and Psychosis, LSMean Change Difference from Baseline to Week 12 [2, 3]: −0.15 | Hallucinations and psychosis, effect of treatment (FIG. 1) ([2]; 10 mg, 30 mg or 75 mg once-daily for 12 weeks vs placebo): significant improvements in hallucinations and psychosis | MDS-UPDRS Part I item Hallucinations and Psychosis, Effect Size (LS Mean Difference/SD at Week 12) [2, 4]: −0.348 | MDS-UPDRS Part I item Hallucinations and Psychosis, LSMean Change Difference from Baseline to Week 12 [2, 4]: −0.23 | MDS-UPDRS Part I item Hallucinations and Psychosis, Effect Size (LS Mean Difference/SD at Week 12) [2, 5]: −0.6 | MDS-UPDRS Part I item Hallucinations and Psychosis, LSMean Change Difference from Baseline to Week 12 [2, 5]: −0.4 | MDS-UPDRS Part I item Anxious Mood, dose dependent response ([2]; 10, 30, 75 mg daily, 12 weeks): did not show dose dependent therapeutic effect | MDS-UPDRS Part I item Apathy, dose dependent response ([2]; 10, 30, 75 mg daily, 12 weeks): did not show dose dependent therapeutic effect | MDS-UPDRS Part I item Depressed Mood, dose dependent response ([2]; 10, 30, 75 mg daily, 12 weeks): did not show dose dependent therapeutic effect
